Measurements taken from patent US20090238808A1, “Process for the identification of novel enzyme interacting compounds” (priority 2005, published 2009).

What was measured:
Assay in all cases: Kinobeads elution with test compound, mouse brain lysate, MS
Type in all cases: binding
Settings in all cases: kinase released from kinobeads by specific elution
[1] = target: T1, CaMK2a (Mus musculus, UniProt P11798)
T1 construct: […]; from tissue; host or cells: mouse brain
Method in brief: (§1)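 Proteins captured from mouse brain lysate onto kinobeads are displaced with unmodified compound at 1.0 mM (30 min, 4° C), with 2% DMSO or DMF buffer as the control. Eluted proteins are identified by mass spectrometry after gel separation.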

[2] = target: CaMK2b (Mus musculus, UniProt P28652)
Method in brief: as §1

[3] = target: T2, FYN (Mus musculus, UniProt P39688)
T2 construct: […]; from tissue; host or cells: mouse brain
Method in brief: as §1

[4] = target: T3, JNK1 (Mus musculus, UniProt Q91Y86)
T3 construct: from tissue; host or cells: mouse brain
Method in brief: as §1

[5] = target: T4, GAK (Mus musculus, UniProt Q99KY4)
T4 construct: from tissue; host or cells: mouse brain
T4 sequence (Q99KY4 1-1305): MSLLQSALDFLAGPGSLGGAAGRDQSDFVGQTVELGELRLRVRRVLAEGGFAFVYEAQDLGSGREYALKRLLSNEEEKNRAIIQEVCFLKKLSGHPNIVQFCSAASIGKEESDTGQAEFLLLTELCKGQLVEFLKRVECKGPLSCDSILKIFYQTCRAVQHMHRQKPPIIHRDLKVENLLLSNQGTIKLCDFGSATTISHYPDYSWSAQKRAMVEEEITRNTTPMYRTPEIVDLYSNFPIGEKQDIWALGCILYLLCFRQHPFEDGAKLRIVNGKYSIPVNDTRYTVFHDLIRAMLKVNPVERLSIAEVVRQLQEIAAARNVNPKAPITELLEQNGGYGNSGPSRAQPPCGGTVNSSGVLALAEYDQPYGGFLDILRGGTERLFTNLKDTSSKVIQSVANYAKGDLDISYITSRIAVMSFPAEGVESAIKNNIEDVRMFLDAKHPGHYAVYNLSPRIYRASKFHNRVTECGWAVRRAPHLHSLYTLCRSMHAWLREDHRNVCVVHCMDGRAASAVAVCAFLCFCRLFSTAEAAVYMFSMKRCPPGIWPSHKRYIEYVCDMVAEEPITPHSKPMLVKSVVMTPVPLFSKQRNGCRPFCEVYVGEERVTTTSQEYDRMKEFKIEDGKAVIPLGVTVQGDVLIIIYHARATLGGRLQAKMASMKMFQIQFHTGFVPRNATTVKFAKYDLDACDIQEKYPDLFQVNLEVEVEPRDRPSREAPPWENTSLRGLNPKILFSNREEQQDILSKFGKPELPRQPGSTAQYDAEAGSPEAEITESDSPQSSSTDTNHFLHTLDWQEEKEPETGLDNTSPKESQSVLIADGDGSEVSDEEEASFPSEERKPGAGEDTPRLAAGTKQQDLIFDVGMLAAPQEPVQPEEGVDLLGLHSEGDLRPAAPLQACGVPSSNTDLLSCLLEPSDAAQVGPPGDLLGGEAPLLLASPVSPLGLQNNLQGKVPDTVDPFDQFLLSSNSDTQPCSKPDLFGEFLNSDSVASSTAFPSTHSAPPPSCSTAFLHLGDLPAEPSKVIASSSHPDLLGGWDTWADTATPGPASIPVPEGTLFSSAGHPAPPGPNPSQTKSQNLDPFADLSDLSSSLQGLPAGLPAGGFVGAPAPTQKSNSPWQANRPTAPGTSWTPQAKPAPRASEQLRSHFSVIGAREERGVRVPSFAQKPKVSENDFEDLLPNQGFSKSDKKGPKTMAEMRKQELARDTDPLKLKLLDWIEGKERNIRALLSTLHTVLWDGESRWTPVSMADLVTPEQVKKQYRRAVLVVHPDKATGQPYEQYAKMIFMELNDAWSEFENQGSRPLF
Method in brief: as §1

[6] = system: T5, RSK1 (Mus musculus)
T5 construct: from tissue; host or cells: mouse brain
Method in brief: as §1

[7] = target: T6, Erk2 (Mus musculus, UniProt P63085)
T6 construct: […]; from tissue; host or cells: mouse brain
Method in brief: as §1

[8] = target: AAK1 (Mus musculus, UniProt Q3UHJ0)
Method in brief: as §1

[9] = target: T7, RSK3 (Mus musculus, UniProt P18653)
T7 construct: from tissue; host or cells: mouse brain
Method in brief: as §1

T6 sequence (P63085 whole entry): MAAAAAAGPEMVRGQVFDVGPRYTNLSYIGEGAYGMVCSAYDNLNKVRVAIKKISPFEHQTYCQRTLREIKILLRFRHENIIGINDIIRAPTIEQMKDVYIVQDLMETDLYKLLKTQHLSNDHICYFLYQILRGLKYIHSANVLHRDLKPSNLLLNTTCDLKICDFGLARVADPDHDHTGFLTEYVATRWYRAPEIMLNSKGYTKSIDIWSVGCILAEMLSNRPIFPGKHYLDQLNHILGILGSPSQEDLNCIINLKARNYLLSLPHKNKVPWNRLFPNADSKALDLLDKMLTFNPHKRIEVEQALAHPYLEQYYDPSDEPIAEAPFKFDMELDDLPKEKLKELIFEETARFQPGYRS
T5 sequence (Q9WUT3 whole entry): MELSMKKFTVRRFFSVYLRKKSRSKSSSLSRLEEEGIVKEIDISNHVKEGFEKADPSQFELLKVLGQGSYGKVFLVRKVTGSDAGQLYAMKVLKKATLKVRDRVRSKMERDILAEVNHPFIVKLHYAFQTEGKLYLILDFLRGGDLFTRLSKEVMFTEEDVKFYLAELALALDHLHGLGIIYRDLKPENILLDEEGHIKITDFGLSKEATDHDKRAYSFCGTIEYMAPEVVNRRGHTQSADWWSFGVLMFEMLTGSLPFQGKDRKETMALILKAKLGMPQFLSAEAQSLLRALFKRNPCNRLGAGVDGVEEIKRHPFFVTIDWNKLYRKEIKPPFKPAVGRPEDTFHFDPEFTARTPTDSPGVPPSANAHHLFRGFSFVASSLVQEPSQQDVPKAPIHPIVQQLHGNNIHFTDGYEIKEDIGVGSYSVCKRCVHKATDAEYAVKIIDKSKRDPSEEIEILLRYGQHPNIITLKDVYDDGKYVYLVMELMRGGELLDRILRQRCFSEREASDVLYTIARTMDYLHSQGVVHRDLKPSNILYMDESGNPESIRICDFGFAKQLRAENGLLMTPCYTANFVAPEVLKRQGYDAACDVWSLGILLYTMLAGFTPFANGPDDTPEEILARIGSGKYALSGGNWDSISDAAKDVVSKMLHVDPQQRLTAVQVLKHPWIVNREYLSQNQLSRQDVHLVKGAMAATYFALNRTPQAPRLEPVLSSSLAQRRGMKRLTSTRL
T2 sequence (P39688 whole entry): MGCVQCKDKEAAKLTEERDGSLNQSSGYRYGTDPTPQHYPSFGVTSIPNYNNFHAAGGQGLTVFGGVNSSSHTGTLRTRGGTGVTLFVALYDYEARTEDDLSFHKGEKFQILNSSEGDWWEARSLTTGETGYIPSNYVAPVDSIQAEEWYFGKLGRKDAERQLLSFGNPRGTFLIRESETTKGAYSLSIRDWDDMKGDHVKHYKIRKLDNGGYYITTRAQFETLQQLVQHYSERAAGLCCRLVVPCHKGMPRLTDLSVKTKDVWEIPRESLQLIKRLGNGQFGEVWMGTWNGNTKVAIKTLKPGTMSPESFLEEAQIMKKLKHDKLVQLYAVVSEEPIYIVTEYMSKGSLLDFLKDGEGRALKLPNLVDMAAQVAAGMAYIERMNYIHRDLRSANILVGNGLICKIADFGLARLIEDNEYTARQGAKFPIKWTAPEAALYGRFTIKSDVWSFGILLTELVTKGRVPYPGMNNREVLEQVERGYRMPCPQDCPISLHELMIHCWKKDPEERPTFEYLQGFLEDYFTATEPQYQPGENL
T3 sequence (Q91Y86 whole entry): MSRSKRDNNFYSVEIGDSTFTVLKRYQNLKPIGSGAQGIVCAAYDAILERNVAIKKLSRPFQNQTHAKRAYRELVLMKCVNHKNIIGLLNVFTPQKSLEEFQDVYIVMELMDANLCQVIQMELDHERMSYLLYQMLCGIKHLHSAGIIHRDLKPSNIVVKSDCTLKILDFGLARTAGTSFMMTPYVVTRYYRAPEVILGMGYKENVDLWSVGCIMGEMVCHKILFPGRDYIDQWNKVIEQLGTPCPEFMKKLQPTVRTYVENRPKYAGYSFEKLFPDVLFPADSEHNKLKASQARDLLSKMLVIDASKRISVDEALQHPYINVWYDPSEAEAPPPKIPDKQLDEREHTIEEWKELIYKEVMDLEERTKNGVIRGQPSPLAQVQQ
T1 sequence (P11798 whole entry): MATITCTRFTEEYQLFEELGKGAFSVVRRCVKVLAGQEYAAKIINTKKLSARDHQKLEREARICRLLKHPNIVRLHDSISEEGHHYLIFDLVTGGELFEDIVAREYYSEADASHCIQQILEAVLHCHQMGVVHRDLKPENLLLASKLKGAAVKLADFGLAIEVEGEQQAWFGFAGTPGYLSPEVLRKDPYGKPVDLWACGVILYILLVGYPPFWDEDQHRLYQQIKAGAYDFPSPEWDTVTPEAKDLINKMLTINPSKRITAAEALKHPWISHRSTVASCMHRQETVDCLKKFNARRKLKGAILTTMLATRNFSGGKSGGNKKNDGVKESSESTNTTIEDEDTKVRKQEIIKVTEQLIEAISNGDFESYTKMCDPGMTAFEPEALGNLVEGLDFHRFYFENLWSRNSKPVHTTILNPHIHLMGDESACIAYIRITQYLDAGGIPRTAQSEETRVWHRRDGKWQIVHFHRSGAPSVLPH
AAK1, sequence (Q3UHJ0 whole entry): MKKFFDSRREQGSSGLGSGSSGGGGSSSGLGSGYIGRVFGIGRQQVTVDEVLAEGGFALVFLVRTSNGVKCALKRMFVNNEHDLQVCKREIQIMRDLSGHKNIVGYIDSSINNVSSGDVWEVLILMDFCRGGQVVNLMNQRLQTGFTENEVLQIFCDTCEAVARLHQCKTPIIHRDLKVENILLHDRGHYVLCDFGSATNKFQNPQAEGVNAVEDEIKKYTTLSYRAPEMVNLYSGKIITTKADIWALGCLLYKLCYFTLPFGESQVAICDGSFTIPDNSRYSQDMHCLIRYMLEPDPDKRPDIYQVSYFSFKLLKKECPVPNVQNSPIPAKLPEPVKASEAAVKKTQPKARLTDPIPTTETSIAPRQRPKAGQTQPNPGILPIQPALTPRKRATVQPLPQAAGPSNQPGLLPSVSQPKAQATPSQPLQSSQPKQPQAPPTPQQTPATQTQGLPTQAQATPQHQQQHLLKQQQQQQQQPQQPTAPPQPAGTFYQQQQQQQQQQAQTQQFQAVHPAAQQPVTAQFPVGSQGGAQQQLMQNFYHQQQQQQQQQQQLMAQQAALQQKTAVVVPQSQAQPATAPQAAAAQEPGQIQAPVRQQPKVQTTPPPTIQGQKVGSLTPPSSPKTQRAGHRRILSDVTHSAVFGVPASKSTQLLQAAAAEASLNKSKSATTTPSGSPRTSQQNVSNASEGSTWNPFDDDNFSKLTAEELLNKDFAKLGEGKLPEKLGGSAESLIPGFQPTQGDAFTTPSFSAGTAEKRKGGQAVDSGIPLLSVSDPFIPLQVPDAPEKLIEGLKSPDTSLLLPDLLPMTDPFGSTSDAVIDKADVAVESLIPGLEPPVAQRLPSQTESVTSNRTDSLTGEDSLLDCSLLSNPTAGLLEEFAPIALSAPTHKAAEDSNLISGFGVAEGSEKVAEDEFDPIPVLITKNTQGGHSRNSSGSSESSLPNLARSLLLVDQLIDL
T7 sequence (P18653 whole entry): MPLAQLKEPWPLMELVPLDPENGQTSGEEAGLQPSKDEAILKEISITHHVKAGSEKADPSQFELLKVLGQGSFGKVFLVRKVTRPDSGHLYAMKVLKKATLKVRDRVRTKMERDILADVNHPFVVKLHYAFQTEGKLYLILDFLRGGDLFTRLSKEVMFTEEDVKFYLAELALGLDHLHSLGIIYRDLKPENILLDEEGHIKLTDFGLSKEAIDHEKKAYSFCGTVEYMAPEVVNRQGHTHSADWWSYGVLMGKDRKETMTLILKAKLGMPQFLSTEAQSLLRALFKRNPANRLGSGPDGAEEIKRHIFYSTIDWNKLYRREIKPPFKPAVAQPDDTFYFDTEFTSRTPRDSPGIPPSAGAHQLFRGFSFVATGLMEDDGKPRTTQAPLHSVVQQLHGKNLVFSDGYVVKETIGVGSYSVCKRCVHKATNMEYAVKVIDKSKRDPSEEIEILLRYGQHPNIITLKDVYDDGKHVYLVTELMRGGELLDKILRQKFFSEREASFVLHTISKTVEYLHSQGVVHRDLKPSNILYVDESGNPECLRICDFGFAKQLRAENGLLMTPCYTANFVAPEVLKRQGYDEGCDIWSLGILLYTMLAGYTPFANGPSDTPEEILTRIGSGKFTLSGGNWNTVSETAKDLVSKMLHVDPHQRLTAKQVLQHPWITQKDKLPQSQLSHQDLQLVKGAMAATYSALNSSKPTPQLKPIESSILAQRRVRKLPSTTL
CaMK2b, sequence (P28652 whole entry): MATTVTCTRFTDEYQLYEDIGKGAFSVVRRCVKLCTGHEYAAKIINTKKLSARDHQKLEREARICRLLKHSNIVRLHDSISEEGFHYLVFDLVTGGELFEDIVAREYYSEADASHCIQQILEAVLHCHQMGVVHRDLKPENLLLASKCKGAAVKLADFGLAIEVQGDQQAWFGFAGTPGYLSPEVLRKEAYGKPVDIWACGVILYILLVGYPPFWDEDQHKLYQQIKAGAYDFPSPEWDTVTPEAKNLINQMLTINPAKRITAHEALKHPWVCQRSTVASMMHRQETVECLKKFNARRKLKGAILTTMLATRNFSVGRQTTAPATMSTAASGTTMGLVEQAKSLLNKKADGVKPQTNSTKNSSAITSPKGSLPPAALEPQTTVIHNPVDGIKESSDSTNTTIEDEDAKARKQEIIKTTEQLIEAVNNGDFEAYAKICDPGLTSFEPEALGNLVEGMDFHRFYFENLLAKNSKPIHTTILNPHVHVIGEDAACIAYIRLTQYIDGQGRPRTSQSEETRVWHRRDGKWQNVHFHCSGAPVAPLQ

SMILES	mass spectrometry score, CaMK2a [1]	number of identified peptides, CaMK2a [1]	mass spectrometry score, CaMK2b [2]	number of identified peptides, CaMK2b [2]	mass spectrometry score, FYN [3]	number of identified peptides, FYN [3]	mass spectrometry score, JNK1 [4]	number of identified peptides, JNK1 [4]	mass spectrometry score, GAK [5]	number of identified peptides, GAK [5]	mass spectrometry score, RSK1 [6]	number of identified peptides, RSK1 [6]	mass spectrometry score, Erk2 [7]	number of identified peptides, Erk2 [7]	mass spectrometry score, AAK1 [8]	number of identified peptides, AAK1 [8]	number of identified peptides, RSK3 [9]
Cn1c(=O)c(-c2c(Cl)cccc2Cl)cc2cnc(Nc3ccc(CN)cc3)cc21 [CZC7324]	513	11	499	14	279	6	448	17	278	7	626	19	1179	235	582	35	12
NCc1ccc(Nc2ncc(F)c(Nc3ccccc3)n2)cc1 [CZC00008004]	966	43	685	30			590	48	733	16	312	9	810	46	718	35	
CNC1CC2OC(C)(C1OC)n1c3ccccc3c3c4c(c5c6ccccc6n2c5c31)C(=O)NC4 (stereo not shown) [CZC9280]	1027	69	1182	72	314	6	457	16			1634	47			777	44	21
CC(C)[C@H](CO)Nc1nc(Nc2ccc(C(=O)O)c(Cl)c2)c2ncn(C(C)C)c2n1 [Purvalanol B, reference compound]	978	27	679	16	268	6	311	10			1177	32	1437	115	1036	51	11
CCCCCCCCCCCCOS(=O)(=O)[O-].[Na+] [SDS]	786	74	615	75	407	17	389	47	166	8	825	45	1023	102	240	32	6
